Read-outs that look alike come from different tables or passages of the source. Bounds are passed on as bounds.

Assay [1] deals with panel of 290 distinct kinases (321 in the larger panel), excluding mutant variants. To be noted: no asterisk: panel of 290 distinct kinases.
Protocol: (§1) Competition binding assays used herein were developed, validated and performed as described in Fabian et al., Nature Biotechnology 2005, 23, 329-336. […] The liganded beads were blocked with excess biotin and washed with blocking buffer (SeaBlock (Pierce), 1% BSA, 0.05% Tween 20, 1 mM DTT) to remove unbound ligand and to reduce non-specific binding. […] Test compounds were prepared as 100× stocks in DMSO and rapidly diluted into the aqueous environment. DMSO was added to control assays lacking a test compound. Primary screen interactions were performed in polypropylene 384-well plates in a final volume of 34 μL, while Kd determinations were performed in polystyrene 96-well plates in a final volume of 135 pt. […] The kinase concentration in the eluates was measured by quantitative PCR. Each kinase was tested individually against each compound. Kds were determined using eleven serial threefold dilutions. A selectivity score, which is a quantitative measure of selectivity of a compound against a panel of enzymes, may be calculated for a compound by dividing the number of enzymes for which a compound meets a set criteria, (for example, a binding constant of 100 nM or less), by the total number of enzymes tested. […] (Note, for those compounds tested in a larger kinase panel, as indicated by an asterisk (*) next to the S35 score, the divisor is 321 (i.e. the larger panel contains 321 distinct kinases, excluding mutant variants.)).
Assay [2] addresses T1, RAF kinases (Homo sapiens, UniProt P04049).
T1 construct: rows headed: RAF1 Kd; other: RAF1; fused on or other part: T7 phage fusion, or DNA tag for PCR detection after expression in HEK-293 cells
Kind of assay: Competition binding assay to determine binding constants (Kd) between compounds and RAF kinases. To be noted: RAF1.
Protocol: as §1

Assay [3] addresses T2, RAF kinases (Homo sapiens, UniProt P15056, V600E).
T2 construct: rows headed: BRAF V600E Kd; other: BRAF V600E; fused on or other part: T7 phage fusion, or DNA tag for PCR detection after expression in HEK-293 cells
The description is as above. To be noted: BRAF V600E.
Protocol: as §1

Assay [4] deals with T3, RAF kinases (Homo sapiens, UniProt P15056).
T3 construct: rows headed: BRAF WT Kd; other: BRAF WT; fused on or other part: T7 phage fusion, or DNA tag for PCR detection after expression in HEK-293 cells
T3 sequence (P15056 whole entry, the tested form may be a part): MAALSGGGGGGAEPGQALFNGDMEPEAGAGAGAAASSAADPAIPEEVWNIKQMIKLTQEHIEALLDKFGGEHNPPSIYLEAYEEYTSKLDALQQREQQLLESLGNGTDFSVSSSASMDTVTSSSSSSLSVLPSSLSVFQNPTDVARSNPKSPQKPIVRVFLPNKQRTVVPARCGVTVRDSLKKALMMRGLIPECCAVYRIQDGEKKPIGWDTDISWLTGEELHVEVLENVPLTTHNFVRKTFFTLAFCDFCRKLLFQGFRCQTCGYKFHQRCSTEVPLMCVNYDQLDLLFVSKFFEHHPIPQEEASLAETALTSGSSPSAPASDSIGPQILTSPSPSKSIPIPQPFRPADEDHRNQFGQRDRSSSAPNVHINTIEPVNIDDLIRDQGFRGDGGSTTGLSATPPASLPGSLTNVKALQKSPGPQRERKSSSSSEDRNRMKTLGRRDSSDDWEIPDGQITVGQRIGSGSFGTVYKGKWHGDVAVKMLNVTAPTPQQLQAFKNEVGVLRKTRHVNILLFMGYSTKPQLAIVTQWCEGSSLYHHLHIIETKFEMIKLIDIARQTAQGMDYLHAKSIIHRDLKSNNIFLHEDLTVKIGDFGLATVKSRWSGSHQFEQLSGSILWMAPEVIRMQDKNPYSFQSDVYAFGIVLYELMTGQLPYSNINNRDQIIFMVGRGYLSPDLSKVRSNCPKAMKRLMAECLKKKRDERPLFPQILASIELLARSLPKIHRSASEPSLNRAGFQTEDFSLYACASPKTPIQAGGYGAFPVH
The assay is described as above. To be noted: BRAF WT.
Protocol: as §1

[5] abbreviates: fraction of kinases inhibited 65% or greater.

T2 sequence (P15056 whole entry V600E, the tested form may be a part): as the sequence (P15056 whole entry, the tested form may be a part) above, with V600E counted along it
T1 sequence (P04049 whole entry, the tested form may be a part): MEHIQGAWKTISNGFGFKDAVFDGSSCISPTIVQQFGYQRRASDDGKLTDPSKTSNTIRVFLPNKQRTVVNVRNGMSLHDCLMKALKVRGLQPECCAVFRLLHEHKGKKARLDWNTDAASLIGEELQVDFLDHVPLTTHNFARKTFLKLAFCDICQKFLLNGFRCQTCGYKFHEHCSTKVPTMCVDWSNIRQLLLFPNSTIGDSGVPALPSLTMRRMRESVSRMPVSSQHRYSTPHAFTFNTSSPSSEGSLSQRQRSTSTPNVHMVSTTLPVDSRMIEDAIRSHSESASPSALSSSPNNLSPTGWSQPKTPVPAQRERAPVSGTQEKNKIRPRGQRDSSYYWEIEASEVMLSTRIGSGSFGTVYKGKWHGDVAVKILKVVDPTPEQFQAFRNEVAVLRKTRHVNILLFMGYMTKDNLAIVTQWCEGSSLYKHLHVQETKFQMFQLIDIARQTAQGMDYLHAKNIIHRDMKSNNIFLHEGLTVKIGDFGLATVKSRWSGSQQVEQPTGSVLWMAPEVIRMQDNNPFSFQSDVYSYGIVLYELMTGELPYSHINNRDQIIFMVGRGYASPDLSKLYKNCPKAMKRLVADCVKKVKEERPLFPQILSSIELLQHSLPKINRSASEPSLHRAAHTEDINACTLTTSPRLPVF

As to `COc1cc2ncnc(Oc3cc(NC(=O)Nc4cc(C(C)(C)C)on4)ccc3Cl)c2cc1OC` [Ex 10, 1-(5-tert-butylisoxazol-3-yl)-3-(4-chloro-3-(6,7-dimethoxyquinazolin-4-yloxy)phenyl)urea], in assay [1] (setting [5]), the S35 entry is on record as “D (D > 0.40)”. The compound also registered a Kd at RAF kinases [2] of 500 to 1000 nM.

For the compound `COc1cc2ncnc(Oc3cccc(NC(=O)Nc4cc(C(F)(F)F)n(-c5ccccc5)n4)c3)c2cc1OC` [Ex 169, 1-[3-(6,7-dimethoxyquinazolin-4-yloxy)phenyl]-3-[1-phenyl-5-(trifluoromethyl)-1H-pyrazol-3-yl]urea], the Kd on RAF kinases [3] was in the range of 250 to 500 nM.

In the case of `COc1cc2ncnc(Oc3cccc(NC(=O)Nc4ccc(Cl)cc4)c3)c2cc1OC` [Ex 175, 1-(4-chlorophenyl)-3-(3-(6,7-dimethoxyquinazolin-4-yloxy)phenyl)urea], in assay [1] (setting [5]), the S35 entry was “C (0.20 < C ≦ 0.40)”. Moreover, the Kd at RAF kinases [4], on RAF kinases [3] and at RAF kinases [2] was less than 250 nM throughout.

With `COc1cc2ncnc(Oc3cccc(NC(=O)Nc4cc(C5(C(F)(F)F)CC5)nn4-c4ccc(C)cc4)c3)c2cc1OC` [Ex 346, 1-(3-(6,7-dimethoxyquinazolin-4-yloxy)phenyl)-3-(1-p-tolyl-3-(1-(trifluoromethyl)cyclopropyl)-1H-pyrazol-5-yl)urea], in assay [1], the S35 entry is “D (D > 0.40)”.

Regarding `COc1cc2nc(Cl)nc(Oc3cccc(NC(=O)Nc4cc(C(C)(C)C)on4)c3)c2cc1OC` [Ex 310, 1-(5-tert-butylisoxazol-3-yl)-3-(3-(2-chloro-6,7-dimethoxyquinazolin-4-yloxy)phenyl)urea], in assay [1], the S35 entry is “A (A ≦ 0.10)”.

With `COc1cc2ncnc(Sc3cccc(NC(=O)Nc4cc(C(C)(C)C)nn4-c4cncc(F)c4)c3)c2cc1OC` [Ex 327, 1-(3-tert-butyl-1-(5-fluoropyridin-3-yl)-1H-pyrazol-5-yl)-3-(3-(6,7-dimethoxyquinazolin-4-ylthio)phenyl)urea], the S35 entry in assay [1] is “D (D > 0.40)”.

The Kd is the concentration at which binding is half-saturated.

The values above are taken from patent publication US9320739B2 (AMBIT BIOSCIENCES CORPORATION, priority 2008, dated 2016).
